In PMC10447463, “Data-mining unveils structure–property–activity correlation of viral infectivity enhancing self-assembling peptides” (Nature Communications, 2023):
Like-named read-outs stand apart in the source and are kept apart here.

Key:
[1] = Zeta-potential measurement; format: physicochemical; conditions: for Zeta-pot. / mV: zeta potential of peptide, Fig S15 source data
Procedure, shortened: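 Samples: 1 mg/mL in PBS pH 7.4 (from DMSO), 1 d at RT, then diluted in 1 mM KCl immediately before measurement. Triplicates, two independent runs averaged.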

TZM-bl cells = format: cell-based; conditions: CellTiter-Glo, mean of n = 3 replicates; for viability 0.26 µM: peptide 0.26 µM; for viability 1.3 µM: peptide 1.3 µM; for viability 6.5 µM: peptide 6.5 µM
Procedure, shortened: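 CellTiter-Glo luminescence, normalized to 100% metabolic activity, gave cytotoxicity readout for TZM-bl cells exposed to peptide serial dilutions for 3 days; 10,000 cells seeded, triplicate measurements.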

[2] = Turbidity, derived count rate of scattered light; format: physicochemical; conditions: for Log Count Rate: log of derived count rate; for Count Rate: turbidity
Procedure, shortened: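 One-day room-temperature aggregation at 1 mg/mL in PBS (pH 7.4) preceded measurement; samples then went into 1 mM KCl. Triplicates per sample, two independent experiments averaged.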

[3] = ref sieste 2021 or Schilling2019, cited from earlier work
Text: Supplement 41467_2023_40663_MOESM7_ESM.zip/FigS17.csv, table | column: Conversion Rate / % ( from sieste 2021 or Schilling2019)

[4] = derived count rate from zeta measurement, mean
[5] = derived count rate of scattered light, mean, std deviation in next column
[6] = Fig S8 panels A, C, asymmetric log errors
[7] = Fig S8 panels B, D, derived count rate of scattered light
[8] = category 1 or 0 from count rate, key not given
[9] = derived count rate of scattered light, mean, std deviation in separate column
[10] = derived count rate of scattered light
[11] = previously reported peptides only

Substance | Zeta category ( +1 = if > 4 mV;-1 = if < -4 mV; 0 = -4mV to 4 mV) [1] | Zeta Pot. / mV ([1]; mean, Std Zeta in next column) [mV] | Zeta Pot. / mV ([1]; mean, Std in separate column) [mV] | Zeta-pot. / mV [1] [mV] | viability 0.26 µM (TZM-bl cells) | viability 1.3 µM (TZM-bl cells) | viability 6.5 µM (TZM-bl cells) | Zeta Count Rate Category ([2]; category 1/0, no key printed) | Zeta Count Rate / kcps [2, 4] [kcps] | Zeta Count Rate / kcps [2, 5] [kcps] | Zeta Count Rate Category ([2]; key not given) | Conversion Rate / % ( from sieste 2021 or Schilling2019) [3] [%] | Zeta category ( +1 = if > 4 mV;-1 = if < -4 mV; 0 = -4mV to 4 mV) ([1]; category from zeta potential) | Log Count Rate [2, 6] | Log Count Rate ([2]; Fig S8 panels B, D) | Count Rate [2, 7] | Zeta Count Rate Category [2, 8] | Zeta Count Rate / kcps [2, 9] [kcps] | Zeta Count Rate / kcps [2, 10] [kcps] | other results
CEIEIQINMWQ [TM143] | -1 (-1 = if < -4 mV) | -25.8 | -25.8 | -25.8 | 119.4 | 116.4 | 95.82 | 1 | 1570 | 1570 | 1 | 74 | – | – | – | – | – | – | – | –
CKFKFQF [BL4] | 1 (+1 = if > 4 mV) | 19.73 | 19.73 | 19.73 | 97.07 | 99.36 | 84.09 | 1 | – | 5303 | – | 95 | 1 (+1 = if > 4 mV) | 3.725 | 3.725 | 5303.37 | 1 | 5303 | – | –
CKFKFQFNMWQ [BL2] | 1 (+1 = if > 4 mV) | 17.03 | 17.03 | 17.03 | 106 | 95.99 | 75.41 | 1 | – | 142.5 | – | 96 | 1 (+1 = if > 4 mV) | – | – | – | 1 | 142.5 | – | –
CKIKIQI [MG3b] | 1 (+1 = if > 4 mV) | 12.8 | 12.8 | 12.8 | 107.8 | 105.2 | 91.32 | 1 | 2432.9 | 2432.9 | 1 | 54 | 1 (+1 = if > 4 mV) | 3.386 | 3.386 | 2432.9 | 1 | 2432.9 | – | Zeta category ( +1 = if > 4 mV;-1 = if < -4 mV; 0 = -4mV to 4 mV) ([1]; FigS26): 1 (+1 = if > 4 mV); Zeta category ( +1 = if > 4 mV;-1 = if < -4 mV; 0 = -4mV to 4 mV) ([1]; category derived from the zeta potential): 1 (+1 = if > 4 mV); Zeta Count Rate Category ([2]; category 1 or 0 derived from the count rate, key not given): 1
CKIKQIINM [BL1] | 1 (+1 = if > 4 mV) | 12.9 | 12.9 | 12.9 | 107.4 | 104.1 | 87.1 | – | – | 9058 | – | – | 1 (+1 = if > 4 mV) | – | – | – | 1 | 9058 | 9058 | Zeta Pot. / mV [1]: 12.9 mV; Zeta Count Rate Category ([2]; category 1 / 0, no key given): 1; Conversion Rate / % ( from sieste 2021 or Schilling2019) [3, 11]: 45%
CKIKQIINMWQ [MG5a / CK17] | 1 (+1 = if > 4 mV) | 13.4 | 13.4 | 13.4 | 108.4 | 105.1 | 87.21 | – | 8317 | 8317 | 1 | – | 1 (+1 = if > 4 mV) | 3.92 | 3.92 | 8316.83 | 1 | 8317 | 8317 | Zeta Pot. / mV [1]: 13.4 mV; Zeta Count Rate Category ([2]; category 1 / 0, no key given): 1; Conversion Rate / % ( from sieste 2021 or Schilling2019) [3, 11]: 50%
CSISIQI [TM141] | -1 (-1 = if < -4 mV) | -25.93 | – | -25.93 | 98.15 | 96.88 | 81.12 | 1 | – | 10241.1 | – | 82 | – | 4.01 | 4.01 | 10241.1 | – | – | – | –
KAKAQANMWQ [JG3] | -1 (-1 = if < -4 mV) | -19.63 | -19.63 | -19.63 | 106.8 | 106.3 | 103.1 | 0 | – | 56.17 | – | 65 | -1 (-1 = if < -4 mV) | – | – | – | 0 | 56.17 | – | –
KFKFQF [JJA6] | -1 (-1 = if < -4 mV) | -11.03 | -11.03 | -11.03 | 101.2 | 100.3 | 102.1 | 1 | – | 183.4 | – | 83 | -1 (-1 = if < -4 mV) | – | – | – | 1 | 183.4 | – | –
KFKFQFNMWQ [JG4] | 1 (+1 = if > 4 mV) | 25.4 | 25.4 | 25.4 | 119.1 | 111.9 | 101.1 | 1 | – | 734.6 | – | 94 | 1 (+1 = if > 4 mV) | 2.866 | 2.866 | 734.63 | 1 | 734.6 | 734.6 | Zeta Pot. / mV ([1]; mean, Std Zeta in separate column): 25.4 mV; Zeta Count Rate Category ([2]; category from count rate, key not given): 1; Conversion Rate / % ( from sieste 2021 or Schilling2019) ([3]; literature value): 94%
KIKIQINM [JGB2] | 1 (+1 = if > 4 mV) | 8.51 | 8.51 | 8.51 | 119.1 | 112 | 103.3 | 1 | – | 262.1 | – | 64 | 1 (+1 = if > 4 mV) | – | – | – | 1 | 262.1 | – | –
KIKQIINMWQ [JG2] | 1 (+1 = if > 4 mV) | 15.37 | 15.37 | 15.37 | 91.29 | 92.88 | 83.88 | – | 615.5 | 615.5 | 1 | – | 1 (+1 = if > 4 mV) | 2.789 | 2.789 | 615.53 | 1 | – | 615.5 | Zeta Pot. / mV [1]: 15.37 mV; Zeta category ( +1 = if > 4 mV;-1 = if < -4 mV; 0 = -4mV to 4 mV) ([1]; FigS26): 1 (+1 = if > 4 mV); Zeta Count Rate Category ([2]; category 1 / 0, no key given): 1; Conversion Rate / % ( from sieste 2021 or Schilling2019) [3, 11]: 86%
MKFKFQF [DF5 / CK16] | 0 (0 = -4mV to 4 mV) | -3.133 | – | -3.133 | 101.4 | 111.3 | 99.71 | 1 | – | 124 | – | 75 | – | – | – | – | – | – | – | –
